Experimental data published in patent US20110305637A1, “RADIOLABELLED PDE10 LIGANDS” (Janssen Pharmaceutica N.V., priority 2009, published 2011).

Assay: Brain metabolite analysis (cerebrum, cerebellum, not perfused)
Assay type: in vivo, rat
Conditions: 60 min p.i.
Method: (§1) From the same animals that were used for plasma analysis, brain was also dissected and rinsed with saline (Mini Plasco®, Braun, Melsungen, Germany) to rinse off the blood. Cerebrum and cerebellum were collected separately and homogenized in 3 mL and 2 mL of acetonitrile, respectively, for about 3 min. A volume of 1 mL of this homogenate was diluted with an equal volume of water and a part of this homogenate was filtered through 0.22 μm filter (Millex®-GV, Millipore, Ireland). About 0.5 mL of the filtrate was spiked with 5 μL of non-radioactive B-1 solution (1 mg/mL) and then injected on to HPLC, which was connected with an XBridge™ column (C18, […], 3 mm×100 mm, Waters) eluted with mixtures of 0.05 M sodium acetate buffer pH 5.5 and acetonitrile (60:40 v/v) at a flow rate of 0.8 mL/min. Similar to the plasma analysis, the HPLC eluate was collected as 1-mL fractions after passing through UV detector, and the radioactivity in the fractions was measured using the automated gamma counter.
(§2) Based on their higher hydrophilicity we can expect that these radiometabolites may not cross the blood brain barrier (BBB). However, in order to rule out the presence or entry of these metabolites to the brain, we have also analyzed cerebrum and cerebellum samples of rats after isolation and subsequent homogenization at 60 min after injection of [^18F]B-1 (n=2).
as §1, with “of non-radioactive B-2 solution (1” for “of non-radioactive B-1 solution (1”, “and acetonitrile (65:35 v/v) at” for “and acetonitrile (60:40 v/v) at”, “passing through the UV detector,” for “passing through UV detector,”
as §2, with “BBB.” for “the blood brain barrier (BBB).”, “[^18F]B-2” for “[^18F]B-1”

[18F]CCCn1cc(-c2ccncc2)c(-c2ccc(OCc3ccc4ccccc4n3)cc2)n1 [[^18F]B-1]
Relative percentage of apolar metabolite(s) (rat cerebellum): 1.4 ± 0.9%
Relative percentage of polar metabolite(s) (rat cerebellum): 15.3 ± 1.8%
Relative percentage of apolar metabolite(s) (rat cerebrum): 0.3 ± 0.0%
Relative percentage of polar metabolite(s) (rat cerebrum): 6.6 ± 2.9%
